Measured values: article PMC7997369, “Assessment of the Multifunctional Behavior of Lupin Peptide P7 and Its Metabolite Using an Integrated Strategy” (Journal of Agricultural and Food Chemistry, 2020)
Blank lines part the entries; values can stand above or below the substance they belong to.

Columns and labels:
[1] = test system: spontaneously hypertensive rats (SHRs); conditions: cited from earlier work
Experimental: (§1) Moreover, when orally administered to spontaneously hypertensive rats (SHRs) at a dose of 30 mg/kg of body weight, LTFPG produces a fast and efficient decrease in systolic blood pressure with a maximum of −37 mmHg after 2 h. […] In particular, these phenomena have been invocated to explain the discrepancy observed between in vitro assays and in vivo results. For example, there are many reports in the literature on the ACE inhibitory activity of different food-derived peptides.[32] In all of these studies, the biochemical characterization is carried out using tests on the purified recombinant ACE enzymes from lung ...

[2] = test system: ACE; conditions: cited from earlier work; for in vitro ACE inhibitory activity at 0.5 mg/mL: hempseed hydrolysate peptides
Experimental: as §1

[3] = test system: differentiated Caco-2 cell monolayers; assay: Transepithelial transport and metabolism across differentiated Caco-2 cell monolayers; format: in vitro ADME, human; conditions: AP solutions of differentiated Caco-2 collected after 120 min; untargeted HPLC–Chip–MS/MS; × = detected
Experimental: For differentiation, Caco-2 cells were seeded on polycarbonate filters with a 12 mm diameter and 0.4 μm pore diameter (Transwell, Corning, Inc., Lowell, MA, U.S.A.) at a 3.5 × 10^5 cells/cm^2 density in complete medium supplemented with 10% FBS in both AP and BL compartments for 2 days to allow for the formation of a confluent cell monolayer. Starting from day 3 after seeding, cells were transferred to FBS-free medium in both compartments, supplemented with ITS [final concentration of 10 mg/L insulin (I), 5.5 mg/L transferrin (T), and 6.7 μg/L sodium selenite (S), GIBCO–Invitrogen, San Giuliano Milanese, Italy] only in the BL compartment, and allowed to differentiate for 18–21 days with regular medium changes 3 times weekly.[12]
The transepithelial electrical resistance (TEER) of differentiated Caco-2 cells was measured at 37 °C using the voltmeter apparatus Millicell (Millipore Co., Billerica, MA, U.S.A.), immediately before and at the end of the transport experiments. In addition, at the end of transport experiments, cells were incubated from the AP side with 1 mM phenol red in phosphate-buffered saline (PBS) containing Ca^2+ (0.9 mM) and Mg^2+ (0.5 mM) for 1 h at 37 °C, to monitor the paracellular permeability of the cell monolayer. The BL solutions were then collected, and NaOH (70 μL, 0.1 N) was added before reading the absorbance at 560 nm by a microplate reader Synergy H1 from Biotek (Winooski, VT, U.S.A.). Phenol red passage was quantified using a standard phenol red curve. Only filters showing TEER values and phenol red passages similar to untreated control cells were considered for peptide transport analysis.
Prior to experiments, the cell monolayer integrity and differentiation were checked by TEER measurement as described in detail above. Cells were then washed twice, and peptide transportation by intestinal cells was assayed. Transport experiments were performed in transport buffer solution (137 mM NaCl, 5.36 mM KCl, 1.26 mM CaCl2, 1.1 mM MgCl2, and 5.5 mM glucose) following conditions previously described.[13] To reproduce the pH conditions existing in vivo in the small intestinal mucosa, AP solutions were maintained at pH 6.0 (buffered with 10 mM morpholinoethanesulfonic acid) and BL solutions were maintained at pH 7.4 (buffered with 10 mM N-2-hydroxyethylpiperazine-N-4-[…]). Prior to transport experiments, cells were washed twice with 500 μL of PBS containing Ca^2+ and Mg^2+. Peptide transportation by mature Caco-2 cells was assayed by loading the AP compartment with P7 and/or LTFPG (500 μM) in the AP transport solution (500 μL) and the BL compartment with the BL transport solution (700 μL). The plates were incubated at 37 °C, and the BL solutions were collected at different time points (i.e., 15, 30, 60, 90, and 120 min) and replaced with fresh solutions prewarmed at 37 °C. All BL solutions together with the AP solutions collected at the end of the transport experiment were stored at −80 °C prior to analysis. Three independent transport experiments were performed, each in duplicate.
Quantitative analysis of P7 in the AP and BL samples were carried out by ion trap mass spectrometry (MS) in multiple reaction monitoring (MRM) mode, monitoring two of the most intense diagnostic transitions, after optimization of the acquisition parameters, such as retention time, MS profile, and tandem mass spectrometry (MS/MS) fragmentation spectrum.[14],[15] All further details regarding liquid chromatography–tandem mass spectrometry (LC–MS/MS) operating conditions and method validations are described in the Supporting Information.
The metabolic degradation products deriving from the hydrolytic activity of brush border membrane peptidases were investigated by an untargeted approach (for further details, see the Supporting Information). […]

Substance: IPAGV
reduction of the BP of SHR [1]: −40.0 mmHg | in vitro ACE inhibitory activity at 0.5 mg/mL [2]: 60.0%

Substance: FKGRYYP [peptide from meat-derived hydrolysates obtained using thermolysin]
effect in vivo on SHRs [1]: totally ineffective | IC50 ([2]; peptides from meat-derived thermolysin hydrolysates, read-out: IC50, in vitro ACE activity): 550 nM

Substance: SVYT
in vitro ACE inhibitory activity at 0.5 mg/mL [2]: 79.0%

detected at the AP side, P7 tested within a mixture [3]: ×
Substance: TFPGSAED [AP metabolite of P7 produced by Caco-2 cells, attributed to leucine aminopeptidase]
